Reference: EPA's aquatic toxicity sets

Tested on: Tetrahymena pyriformis
Experiment: 48 h IGC50 (-log10 mol/L); higher = more toxic

O=Cc1c(O)ccc2ccccc12
48 h IGC50 (-log10 mol/L): 4.32

Cc1c(N)ccc(O)c1C
48 h IGC50 (-log10 mol/L): 4.44

CCOC(=O)c1ccc(C#N)cc1
48 h IGC50 (-log10 mol/L): 3.37

CCCCc1ccco1
48 h IGC50 (-log10 mol/L): 3.44

Oc1c(Cl)cc(Br)cc1Cl
48 h IGC50 (-log10 mol/L): 4.78

O=[N+]([O-])c1ccncc1
48 h IGC50 (-log10 mol/L): 3.41

CCOC(=O)CCC(=O)CCC(=O)OCC
48 h IGC50 (-log10 mol/L): 2.36

O=[N+]([O-])c1cc(Br)ccc1Br
48 h IGC50 (-log10 mol/L): 4.37

NC(=O)c1cccs1
48 h IGC50 (-log10 mol/L): 2.03

Cc1cc(C)cc(N)c1
48 h IGC50 (-log10 mol/L): 2.64

OCc1cccc2ccccc12
48 h IGC50 (-log10 mol/L): 3.13

C=CCCO
48 h IGC50 (-log10 mol/L): 1.3

CC(C)(C)C#N
48 h IGC50 (-log10 mol/L): 1.68

Cc1ccncc1C
48 h IGC50 (-log10 mol/L): 2.5

Cc1c(O)c(Br)c(Br)c(Br)c1Br
48 h IGC50 (-log10 mol/L): 5.57

CC(C)(C)OC(=O)CCl
48 h IGC50 (-log10 mol/L): 3.85

N#Cc1ccncc1
48 h IGC50 (-log10 mol/L): 2.18

C#CCCCCO
48 h IGC50 (-log10 mol/L): 1.71

CCC(C)C(N)CO (stereo not given)
48 h IGC50 (-log10 mol/L): 2.34

CCCCC(C)O (stereo not given)
48 h IGC50 (-log10 mol/L): 2.07

CCCCC(=O)c1ccccc1
48 h IGC50 (-log10 mol/L): 3.56

C=Cc1ccc2ccccc2c1
48 h IGC50 (-log10 mol/L): 4.24

CCC(C)C(=O)OC (stereo not given)
48 h IGC50 (-log10 mol/L): 1.83

NCCO
48 h IGC50 (-log10 mol/L): 1.11

Cc1cc(O)cc(C)c1Br
48 h IGC50 (-log10 mol/L): 4.27

c1cnccn1
48 h IGC50 (-log10 mol/L): 1.18

OCc1ccccc1F
48 h IGC50 (-log10 mol/L): 2.33

Cc1cnccn1
48 h IGC50 (-log10 mol/L): 1.91

Oc1ccccc1Br
48 h IGC50 (-log10 mol/L): 3.33

O=Nc1ccc(O)cc1
48 h IGC50 (-log10 mol/L): 3.65

CC(C)(C)c1cccc(O)c1
48 h IGC50 (-log10 mol/L): 3.74

CC(=O)c1ccc(C#N)cc1
48 h IGC50 (-log10 mol/L): 2.63

CC(C)(C)c1ccc(Br)cc1
48 h IGC50 (-log10 mol/L): 3.75

CCCCCCCCCCO
48 h IGC50 (-log10 mol/L): 4.33

CC=CC(=O)OCC(C)C
48 h IGC50 (-log10 mol/L): 2.66

O=C(Oc1ccccc1)c1ccccc1
48 h IGC50 (-log10 mol/L): 4.35

CC(O)CCC(C)O (stereo not given)
48 h IGC50 (-log10 mol/L): 1.04

O=Cc1ccoc1
48 h IGC50 (-log10 mol/L): 3

OC1Cc2ccccc2C1
48 h IGC50 (-log10 mol/L): 2.31

OCCBr
48 h IGC50 (-log10 mol/L): 2.15

CCCCCCO
48 h IGC50 (-log10 mol/L): 2.62

COC(N)=O
48 h IGC50 (-log10 mol/L): 1.02

O=[N+]([O-])c1cc(Cl)cc(Cl)c1[N+](=O)[O-]
48 h IGC50 (-log10 mol/L): 5.42

O=Cc1cc(I)cc(I)c1O
48 h IGC50 (-log10 mol/L): 5.34

CC(C)CCBr
48 h IGC50 (-log10 mol/L): 3.25

CCCCS(=O)CCCC
48 h IGC50 (-log10 mol/L): 2.74

N#CCCCC#N
48 h IGC50 (-log10 mol/L): 1.36

COP(=O)(OC)OC
48 h IGC50 (-log10 mol/L): 1.18

O=C1C=Cc2ccccc2C1=O
48 h IGC50 (-log10 mol/L): 6.2

OCCCCCCBr
48 h IGC50 (-log10 mol/L): 3.01

CCOC(=O)CC(C)C
48 h IGC50 (-log10 mol/L): 2.28

N#CCCc1ccccc1
48 h IGC50 (-log10 mol/L): 2.84

C=C(C)C(=O)OCC(CC)CCCC (stereo not given)
48 h IGC50 (-log10 mol/L): 4.57

O=[N+]([O-])c1cc([N+](=O)[O-])c(F)cc1F
48 h IGC50 (-log10 mol/L): 5.08

CC#CC(=O)OCC
48 h IGC50 (-log10 mol/L): 3.51

CCc1ccc(C=O)cc1
48 h IGC50 (-log10 mol/L): 3.29

C=CCCC(C)=O
48 h IGC50 (-log10 mol/L): 1.86

CCC/C=C/CO
48 h IGC50 (-log10 mol/L): 2.53

CC(C)CCN
48 h IGC50 (-log10 mol/L): 2.42

CNC(C)=O
48 h IGC50 (-log10 mol/L): 1.02

CCCCNC(=S)NCCCC
48 h IGC50 (-log10 mol/L): 3.86

CCCC(O)CC (stereo not given)
48 h IGC50 (-log10 mol/L): 2.15

CCCCCCCCCCCC(C)O (stereo not given)
48 h IGC50 (-log10 mol/L): 5.17

N#CCc1ccc(N)cc1
48 h IGC50 (-log10 mol/L): 2.24

CCOC(=O)CCC(C)=O
48 h IGC50 (-log10 mol/L): 1.6

CC=CCO
48 h IGC50 (-log10 mol/L): 1.53

CCCCC(Br)CBr (stereo not given)
48 h IGC50 (-log10 mol/L): 4.15

C#CC(O)C(C)CCC (stereo not given)
48 h IGC50 (-log10 mol/L): 3.74

COCCCN
48 h IGC50 (-log10 mol/L): 1.23

CCCCCCCCCCCN
48 h IGC50 (-log10 mol/L): 5.33

C=C(C)C(=O)OCCC
48 h IGC50 (-log10 mol/L): 2.35

CC(=O)c1cccc([N+](=O)[O-])c1
48 h IGC50 (-log10 mol/L): 3.32

CCC=C(C)C=O
48 h IGC50 (-log10 mol/L): 2.98

CCCNC(C)=O
48 h IGC50 (-log10 mol/L): 1.5

CC(=O)c1cc(C)c(C)cc1O
48 h IGC50 (-log10 mol/L): 3.71

c1ccc(Cc2ccncc2)cc1
48 h IGC50 (-log10 mol/L): 3.63

OCCCCCCCCCCO
48 h IGC50 (-log10 mol/L): 3.22

CC(C)(C)c1ccc(O)c(N)c1
48 h IGC50 (-log10 mol/L): 3.37

O=[N+]([O-])c1ccc(/C=N/O)cc1
48 h IGC50 (-log10 mol/L): 3.68

COC(=O)C=C(C)C
48 h IGC50 (-log10 mol/L): 1.94
